Patent publication US20190367520A1, “NEW COMPOUND HAVING FGFR INHIBITORY ACTIVITY AND PREPARATION AND APPLICATION THEREOF” (SHANGHAI INSTITUTE OF MATERIA MEDICA, CHINESE ACADEMY OF …, priority 2016, published 2019)

Columns and labels:
[1] = molecular target: EGFR (Homo sapiens, UniProt P00533); assay: Inhibitory activity on EGFR enzyme activity; format: biochemical
[2] = test system: human lung cancer NCI-H1581 transplanted tumor; assay: Growth of transplanted tumor of human lung cancer NCI-H1581 in nude mice; format: in vivo, nude mouse; conditions: for T/C (%) relative tumor proliferation rate: d14; for body weight change of the animals / tumor volume change of the animals: po, 14 days
Protocol: The tumor tissue in the vigorous growth period was cut into about 1.5 mm^3, and inoculated subcutaneously in the right axilla of nude mouse under aseptic conditions. The diameter of transplanted subcutaneously tumor in the nude mouse was measured with a vernier caliper. The mice were randomly divided into groups after the tumor was grown to an average volume of about 90 mm 3. The compound No. 12 obtained in Example 12 was orally administered once a day at a dose of 100 mg/kg and 20 mg/kg, respectively, for 14 days, and the growth inhibition effects of compound NO. 12 on subcutaneously transplanted tumor in human lung cancer NCI-H1581 nude mouse were measured.
In the solvent control group, an equal amount of physiological saline was given. During the entire experiment, the diameter of the transplanted tumor was measured twice a week, and the body weight of the mice was weighed. The tumor volume (TV) is calculated as: TV=½×a×b^2, where a and b represent length and width, respectively. According to the measured results, the relative tumor volume (RTV) was calculated as: RTV=Vt/V0, wherein V0 was the tumor volume measured when the mouse was administered in cage (i.e. d0), Vt was the tumor volume at each measurement.
On the day of the end of the experiment, 2 hours after administration, blood samples and tumor tissues of each group were collected and preserved.

[3] = molecular target: FGFR1 kinase domain recombinant protein (Homo sapiens, UniProt P11362); assay: FGFR1 enzyme activity at molecular level (ELISA, Poly(Glu,Tyr) 4:1 substrate)
Protocol: (§1) The plate was placed at 37° C. for 12-16 hours. The liquid in the well was discarded, the plate was washed, and the panel was washed three times with 200 μL/well of T-PBS (PBS containing 0.1% Tween-20) for 5 minutes each time.
(§2) 50 μL of ATP solution diluted with reaction buffer (50 mM HEPES pH 7.4, 50 mM MgCl2, 0.5 mM MnCl2, 0.2 mM Na3VO4, 1 mM DTT) was added to each well to a final concentration of 5 μM. The compound was diluted to a suitable concentration in DMSO, 1 μL/well or containing the corresponding concentration of DMSO (negative control well), and the FGFR1, FGFR4 kinase domain recombinant protein diluted in 49 μL of reaction buffer was added to initiate the reaction. Two control wells without ATP were required for each experiment. The reaction was carried out for 1 hour at 37° C. on a shaker (100 rpm). The plate was washed three times with T-PBS. Primary antibody, PY99 dilution was added at 100 μL/well and shaken at 37° C. for 0.5 hour. The plate was washed three times with T-PBS. Secondary antibody, horseradish peroxidase-labeled goat anti-mouse IgG dilution was added at 100 μL/well, and shaken at 37° C. for 0.5 hour. […] (Ultrasound was required for the dissolution of OPD, and the chromogenic solution needed to be prepared when used). 2 M H2SO4 was added at 50 μL/well to quench the reaction and a tunable wavelength microplate reader SPECTRA MAX 190 was used at a wavelength of 490 nm.
(§3) The inhibition rate of the sample was obtained by the following formula:
(§4) The IC50 value was obtained by four-parameter regression using the software attached to the microplate reader.

[4] = molecular target: FGFR4 kinase domain recombinant protein (Homo sapiens, UniProt P22455); assay: FGFR4 enzyme activity at molecular level (ELISA, Poly(Glu,Tyr) 4:1 substrate)
Chain of FGFR4 kinase domain recombinant protein (P22455 467-755 limits assumed): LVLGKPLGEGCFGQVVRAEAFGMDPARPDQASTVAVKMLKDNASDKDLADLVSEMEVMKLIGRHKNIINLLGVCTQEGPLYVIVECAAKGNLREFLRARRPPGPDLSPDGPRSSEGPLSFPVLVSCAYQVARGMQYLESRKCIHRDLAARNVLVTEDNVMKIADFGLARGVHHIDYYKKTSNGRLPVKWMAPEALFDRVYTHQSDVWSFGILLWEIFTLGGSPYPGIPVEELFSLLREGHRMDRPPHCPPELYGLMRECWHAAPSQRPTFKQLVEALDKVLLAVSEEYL
Protocol: as §1, §2, §3, §4

Chain of EGFR (P00533 25-1210, species assumed): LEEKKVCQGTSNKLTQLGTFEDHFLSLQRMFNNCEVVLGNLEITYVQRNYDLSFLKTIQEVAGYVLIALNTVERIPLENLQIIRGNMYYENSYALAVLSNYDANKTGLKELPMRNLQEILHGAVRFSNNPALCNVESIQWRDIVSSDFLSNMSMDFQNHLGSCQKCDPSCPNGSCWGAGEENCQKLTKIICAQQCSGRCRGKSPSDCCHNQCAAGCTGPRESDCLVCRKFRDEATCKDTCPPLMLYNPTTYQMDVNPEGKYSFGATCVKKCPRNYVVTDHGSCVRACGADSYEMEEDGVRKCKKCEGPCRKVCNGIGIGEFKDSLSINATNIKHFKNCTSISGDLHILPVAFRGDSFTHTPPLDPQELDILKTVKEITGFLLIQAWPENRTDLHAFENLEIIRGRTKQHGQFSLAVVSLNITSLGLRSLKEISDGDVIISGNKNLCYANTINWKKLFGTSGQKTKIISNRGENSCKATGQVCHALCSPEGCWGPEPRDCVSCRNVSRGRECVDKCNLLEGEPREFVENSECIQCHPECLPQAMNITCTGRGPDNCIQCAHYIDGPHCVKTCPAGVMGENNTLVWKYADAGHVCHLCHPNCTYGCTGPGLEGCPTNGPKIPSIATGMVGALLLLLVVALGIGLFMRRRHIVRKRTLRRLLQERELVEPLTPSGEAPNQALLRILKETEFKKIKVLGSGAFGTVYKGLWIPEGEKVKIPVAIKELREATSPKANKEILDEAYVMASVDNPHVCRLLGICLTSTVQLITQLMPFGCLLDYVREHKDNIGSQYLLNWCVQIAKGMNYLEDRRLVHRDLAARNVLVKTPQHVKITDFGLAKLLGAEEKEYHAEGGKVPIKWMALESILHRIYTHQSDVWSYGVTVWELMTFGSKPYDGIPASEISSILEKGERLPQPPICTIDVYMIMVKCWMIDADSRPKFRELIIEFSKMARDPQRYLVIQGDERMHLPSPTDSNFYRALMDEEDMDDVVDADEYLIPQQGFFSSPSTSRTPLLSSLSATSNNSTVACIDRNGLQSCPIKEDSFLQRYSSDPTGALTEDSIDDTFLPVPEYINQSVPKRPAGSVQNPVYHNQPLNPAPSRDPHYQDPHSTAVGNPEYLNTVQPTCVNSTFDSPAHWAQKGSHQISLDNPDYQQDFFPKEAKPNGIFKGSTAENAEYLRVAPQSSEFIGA
Chain of FGFR1 kinase domain recombinant protein (P11362 478-767 limits assumed): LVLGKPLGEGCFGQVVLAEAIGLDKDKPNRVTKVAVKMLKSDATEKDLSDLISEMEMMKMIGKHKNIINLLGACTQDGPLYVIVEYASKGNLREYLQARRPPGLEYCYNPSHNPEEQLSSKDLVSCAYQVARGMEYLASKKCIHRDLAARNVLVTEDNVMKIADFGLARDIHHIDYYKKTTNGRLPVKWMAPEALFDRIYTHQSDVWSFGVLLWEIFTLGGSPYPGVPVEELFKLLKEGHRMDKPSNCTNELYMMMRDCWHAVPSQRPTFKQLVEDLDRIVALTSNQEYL

IC50 [1]: > 1000 nM
IC50 [3]: < 10 nM
IC50 [4]: < 10 nM
Structure (SMILES): C=CC(=O)N1CC[C@H](n2cc(-c3cc4cc(C)cc(OC)c4s3)c3c(N)ncnc32)C1 [NO. 12, (S)-1-(3-(4-amino-5-(7-methoxy-5-methylbenzothiophene-2-yl)-7H-pyrrole[2,3-d]pyrimidine-7-yl)pyrrolidine-1-yl)prop-2-en-1-one]
EGFR inhibitory activity (in words) ([1]; conclusion from Table 3): substantially no EGFR inhibitory activity
T/C (%) relative tumor proliferation rate ([2]; 20 mg/kg qd/14 po): 31.28%
body weight change of the animals ([2]; 20 mg/kg): 24.2%
tumor volume change of the animals ([2]; 20 mg/kg): 1500%
T/C (%) relative tumor proliferation rate ([2]; 100 mg/kg qd/14 po): 2.9%
body weight change of the animals ([2]; 100 mg/kg): −5.9%
tumor volume change of the animals ([2]; 100 mg/kg): 54.8%
